Source: ChEMBL document CHEMBL2151032, “Structural and enzymatic analyses reveal the binding mode of a novel series of Francisella tularensis enoyl reductase (FabI) inhibitors” (J Med Chem, 2012)

Target: T1, Enoyl-[acyl-carrier-protein] reductase [NADH] (Francisella tularensis subsp. tularensis (strain SCHU S4 / Schu 4), UniProt Q5NGQ3)
T1 sequence (Q5NGQ3 whole entry): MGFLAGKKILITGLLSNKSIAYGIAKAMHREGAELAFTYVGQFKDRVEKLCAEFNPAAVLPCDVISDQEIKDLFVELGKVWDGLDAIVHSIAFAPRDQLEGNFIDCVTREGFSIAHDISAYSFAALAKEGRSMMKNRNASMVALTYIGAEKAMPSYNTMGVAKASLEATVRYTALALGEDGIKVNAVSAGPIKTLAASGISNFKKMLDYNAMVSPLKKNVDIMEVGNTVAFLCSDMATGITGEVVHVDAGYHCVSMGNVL

Cc1cc2ncn(Cc3ccc(Cl)c(Cl)c3)c2cc1C
Ki: 0.36 µM
